For experiment [1], the target named is cathepsin B (Homo sapiens, UniProt P07858). Kind of experiment: inhibition of cathepsin B enzyme activity. The experiment is classed as biochemical. To be noted: read-out: activity to inhibit cathepsin B, IC50. The text has this:
Persons skilled in the art can appropriately select the position to introduce the Raman label as well as the type of Raman label to introduce by considering the structure of the compound. Moreover, persons skilled in the art having general techniques in the field of organic synthesis can appropriately synthesize a Raman-labeled compound as the low-molecular-weight compound according to the present invention. This is explained with a specific example as follows. Persons skilled in the art can synthesize an AOMK derivative (hereinafter, also referred to as RAT8-AOMK) by Raman-labeling acyloxymethyl ketone (AOMK) (an inhibitor of cathepsin B) with alkyne using general techniques in the field of organic synthesis. The RAT8-AOMK binds to cathepsin B, so as to inhibit its enzyme activity. The activity of RAT8-AOMK to inhibit cathepsin B is represented by IC50=0.3 μM. RAT8-AOMK can be synthesized and obtained by reacting N-Boc-AOMK (IC50=0.05 μM) with 4-nitrophenyl-4-ethynylbenzyl carbonate. Acyloxymethyl ketone (AOMK) is known as a cysteine protease inhibitor. The principle thereof is that a cysteine residue of the active center of an enzyme protein is modified by AOMK, and thus activity as protease is diminished (see FIG. 24).

The test system of experiment [2] is target protein. To be noted: cited from earlier work.

The IC50 is the concentration needed to halve the response being measured. With `C#Cc1ccc(COC(=O)N[C@@H](Cc2ccccc2)C(=O)NCC(=O)COC(=O)c2c(C)cccc2C)cc1` [RAT8-AOMK], the IC50 in experiment [1] worked out at 300 nM.
In the case of 16F16, the “activity when modified with a fluorophore” value in experiment [2] is “loses its activity”.

Source of the values: US10338078B2, “Method and apparatus for analyzing biomolecules using Raman spectroscopy” (Japan Science and Technology Agency, priority 2012, dated 2019).
